Several values for one entry are separate records, joined by “and”; a condition that tells them apart may be missing. Equal entries are not always repeated.
What was measured:
HBOC-1 (13.4 g/dL) = molecular target: T1, HBOC-1 (13.4 g/dL) (Bos taurus, UniProt P01966+P02070); experiment: Effect of RSR-13 on oxygen affinity of HBOC-1 (multiple-point tonometer); type: biochemical, bovine
T1 construct: is a highly purified bovine Hb that is crosslinked with gluteraldehyde; purchased BioPure Inc
Method: (§1) The effect of RSR-13 on the oxygen affinity of erythswHb and erythhHb, and HBOC-1 was determined using multiple-point tonometer. RSR-13 (1, 2 or 5 mM) was incubated with blood from swine or human (hct ˜30%) or HBOC-1 (13.4 g/dL) for 30 minutes. The Hb-compound mixture was then further incubated in IL 237 tonometers (Instrumentation Laboratories, Inc. Lexington, Mass.) for 5 minutes at 37° C. to equilibrate at oxygen tensions of 6 mmHg or 20 mmHg or 40 mmHg or 60 mmHg. Following, the sample is aspirated into an IL 1420 Automated Blood Gas Analyzer and an IL 682 Co-oximeter (Instrumentation Laboratories) or ABL 700 Blood Gas Analyzer (Radiometer, Westlake, Ohio) to determine the pH, pCO2, pO2, and Hb oxygen saturation values (SO2). The measured values of pO2 and SO2 were then subjected to a non-linear regression analysis using the program Scientist to estimate the P50 and Hill coefficient values (cooperativity of oxygen binding; n50).

[1] = molecular target: T2, human whole blood or erythrocyte (erythhHb) (Homo sapiens, UniProt P68871+P69905); experiment: Effect of RSR-13 on oxygen affinity of human whole blood (multiple-point tonometer); type: biochemical; conditions: human blood hct 30%
T2 construct: from tissue; host or cells: human whole blood (hct ~30%)
Method: as §1

[2] = molecular target: T3, NO derivative of cell free swine Hb (NOswHb) (Sus scrofa, UniProt P01965+P02067); experiment: Effect of RSR-13 on Soret absorbance of NO derivative of cell free swine Hb; type: biochemical
T3 construct: Human hemoglobin (hHb) or swine Hb (swHb) was purified from discarded blood samples; from tissue; host or cells: purified in house from discarded swine blood samples
T3 sequence (P01965 whole entry): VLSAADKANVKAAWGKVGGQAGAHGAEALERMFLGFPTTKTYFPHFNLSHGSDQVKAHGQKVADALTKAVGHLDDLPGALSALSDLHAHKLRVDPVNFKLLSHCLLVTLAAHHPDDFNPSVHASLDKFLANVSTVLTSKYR
T3 sequence (P02067 2-147 limits assumed): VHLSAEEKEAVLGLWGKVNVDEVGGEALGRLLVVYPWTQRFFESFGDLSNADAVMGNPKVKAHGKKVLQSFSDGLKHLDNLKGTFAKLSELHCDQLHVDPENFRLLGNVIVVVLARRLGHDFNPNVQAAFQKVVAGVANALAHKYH
Method: (§2) Effect of RSR-13 on the absorption spectra in the soret region of the nitrosylated derivatives of cell free Hb from human and swine, and HBOC-1 were recorded at 37° C. using HP Agilant 8453 Spectrophotometer using 1 cm path length cuvette. Solid Na dithionite (2 mg/mL) was added to the Hb to make the fully deoxygenated Hb, followed by addition of solid diethylamine NONOate (1.3 mg/mL) to make the NOhHb or NOswHb, or NOHBOC-1 derivatives. RSR-13 (20 uM-800 uM) were added to 65 ug of the NO derivatives and the spectrum monitored in the soret region at 417 nm.

[3] = molecular target: T4, erythswHb/HBOC-1 solution mixture (UniProt P01965+P01966+P02067+P02070); experiment: Effect of RSR-13 on oxygen affinity of erythswHb/HBOC-1 solution mixtures; type: biochemical, swine; conditions: 2 mM RSR-13
T4 construct: composed of either 15% or 20% hct whole blood in 13.4 g/dL of HBOC-1; is a highly purified bovine Hb that is crosslinked with gluteraldehyde; tissue BioPure Inc (HBOC-1 part); host or cells: swine whole blood (hct 15 or 20%) mixed with HBOC-1 (13.4 g/dL) at 75:25 or 50:50 by volume
T4 sequence (P01965 whole entry): as the sequence (P01965 whole entry) above
T4 sequence (P02067 whole entry): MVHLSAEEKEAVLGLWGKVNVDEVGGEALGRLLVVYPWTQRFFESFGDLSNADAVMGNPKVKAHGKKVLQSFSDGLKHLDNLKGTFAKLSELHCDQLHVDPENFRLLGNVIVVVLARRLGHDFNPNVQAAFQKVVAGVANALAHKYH
T4 sequence (P01966 2-142 limits assumed): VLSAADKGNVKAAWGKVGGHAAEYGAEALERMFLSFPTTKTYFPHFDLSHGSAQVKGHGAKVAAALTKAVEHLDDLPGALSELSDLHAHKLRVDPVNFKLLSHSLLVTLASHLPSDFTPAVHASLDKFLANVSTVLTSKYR
T4 sequence (P02070 whole entry): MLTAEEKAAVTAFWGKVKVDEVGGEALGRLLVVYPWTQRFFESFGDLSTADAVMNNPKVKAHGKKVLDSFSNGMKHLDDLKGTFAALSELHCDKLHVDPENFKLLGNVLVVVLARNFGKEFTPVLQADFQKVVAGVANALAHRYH
Method: as §1
RSR-13 (2 mM) was incubated with erythswHb (hct of 15 or 20%)/HBOC-1 (13.4 g/dL) solution mixture in a volume ratio of 75:25 and 50:50 for 30 minutes. The Hb-compound mixture was then analyzed for their P50 and Hill coefficient values as described above.

[4] = molecular target: T5, COHb in swine whole blood (hct of 30%) (Sus scrofa, UniProt P01965+P02067); experiment: Effect of RSR-13 on COHb levels of swine blood; type: biochemical; conditions: 2 mM RSR-13, after 30 minutes
T5 construct: from tissue; host or cells: swine whole blood (hct 30%, 20% or 15%)
T5 sequence (P01965 whole entry): as the sequence (P01965 whole entry) above
T5 sequence (P02067 2-147 limits assumed): as the sequence (P02067 2-147 limits assumed) above
Method: (§3) To determine whether RSR-13 will reduce COHb levels in swine blood or HBOC-1, we incubated HBOC-1 (13.4 g/dL) that has been exposed to CO to form ˜51% COHb, and swine whole blood (hct of 30%) that has been exposed to CO to form ˜52 or 10% COHb concentrations with 2 mM RSR-13. RSR-13 was able to reduce the amount of COHb by about 16% in the swine blood in the experiment starting with either 10% or 52% COHb level, and about 14% in the HBOC-1.

[5] = molecular target: T6, COHb in HBOC-1 (13.4 g/dL) (Bos taurus, UniProt P01966+P02070); experiment: Effect of RSR-13 on COHb levels of HBOC-1; type: biochemical, bovine; conditions: HBOC-1 13.4 g/dL exposed to CO to ~51% COHb (control 51.1), 2 mM RSR-13, after 30 minutes
T6 construct: is a highly purified bovine Hb that is crosslinked with gluteraldehyde; purchased BioPure Inc
T6 sequence (P01966 2-142 limits assumed): as the sequence (P01966 2-142 limits assumed) above
T6 sequence (P02070 whole entry): as the sequence (P02070 whole entry) above
Method: as §3

whole blood = molecular target: T7, whole blood (Homo sapiens, UniProt P68871+P69905); conditions: Phase I studies, doses of 75-100 mg/kg; cited from earlier work
T7 construct: host or cells: whole blood of dosed subjects
T7 sequence (P69905 2-142 limits assumed): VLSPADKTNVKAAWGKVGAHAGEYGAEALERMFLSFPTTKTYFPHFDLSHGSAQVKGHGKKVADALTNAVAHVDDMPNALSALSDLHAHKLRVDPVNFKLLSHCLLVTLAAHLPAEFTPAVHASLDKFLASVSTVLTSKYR
T7 sequence (P68871 2-147 limits assumed): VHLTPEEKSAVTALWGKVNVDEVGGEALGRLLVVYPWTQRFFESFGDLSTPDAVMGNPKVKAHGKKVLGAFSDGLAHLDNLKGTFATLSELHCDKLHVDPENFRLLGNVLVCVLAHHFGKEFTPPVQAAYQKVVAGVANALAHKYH

[6] = molecular target: T8, NO derivative of cell free human Hb (NOhHb) (Homo sapiens, UniProt P68871+P69905); experiment: Effect of RSR-13 on Soret absorbance of NO derivative of cell free human Hb; type: biochemical
T8 construct: Human hemoglobin (hHb) or swine Hb (swHb) was purified from discarded blood samples; from tissue; host or cells: purified in house from discarded human blood samples
T8 sequence (P69905 2-142 limits assumed): as the sequence (P69905 2-142 limits assumed) above
T8 sequence (P68871 2-147 limits assumed): as the sequence (P68871 2-147 limits assumed) above
Method: as §2

[7] = molecular target: T9, NO derivative of HBOC-1 (NOHBOC-1) (Bos taurus, UniProt P01966+P02070); experiment: Effect of RSR-13 on Soret absorbance of NO derivative of HBOC-1; type: biochemical, bovine
T9 construct: is a highly purified bovine Hb that is crosslinked with gluteraldehyde; purchased BioPure Inc
T9 sequence (P01966 2-142 limits assumed): as the sequence (P01966 2-142 limits assumed) above
T9 sequence (P02070 whole entry): as the sequence (P02070 whole entry) above
Method: as §2

[8] = molecular target: T10, swine whole blood or erythrocyte (erythswHb) (Sus scrofa, UniProt P01965+P02067); experiment: Effect of RSR-13 on oxygen affinity of swine whole blood (multiple-point tonometer); type: biochemical
T10 construct: from tissue; host or cells: swine whole blood (hct 30%, 20% or 15%)
Method: as §1, with “RSR-13 (1, 2 or 5 mM) was incubated with blood from swine or human (hct ˜30%) or HBOC-1 (13.4 g/dL) for 30 minutes.” left out

[9] = Oxygen affinity of HBOC-1 itself, without RSR-13 (multiple-point tonometer); type: biochemical, bovine; conditions: HBOC-1 13.4 g/dL alone, 0 RSR-13
Method: as §1

[10] = Blood/HBOC (50:50), swine blood hct 15%
[11] = Blood/HBOC (50:50), swine blood hct 20%
[12] = Blood/HBOC (75:25), swine blood hct 15%
[13] = Blood/HBOC (75:25), swine blood hct 20%
[14] = swine blood (100%) hct 15%, 2 mM RSR-13
[15] = swine blood (100%) hct 20%, 2 mM RSR-13
[16] = swine blood hct 30%, 1 mM RSR-13
[17] = swine blood hct 30%, 2 mM RSR-13
[18] = swine blood hct 30%, 5 mM RSR-13

T1 sequence (P01966 2-142 limits assumed): as the sequence (P01966 2-142 limits assumed) above
T1 sequence (P02070 whole entry): as the sequence (P02070 whole entry) above

Work on Cc1cc(C)cc(NC(=O)Cc2ccc(OC(C)(C)C(=O)O)cc2)c1 [RSR-13, 2-[4-[2-[(3,5-dimethylphenyl)amino]-2-oxoethyl]phenoxy]-2-methylpropanoic acid] yielded a P50 (HBOC-1 (13.4 g/dL); 2 mM RSR-13) of 73.6 ± 3.0 mmHg, a n50 (HBOC-1 (13.4 g/dL); 2 mM RSR-13) of 1.1 ± 0.3 and a ΔP50 (HBOC-1 (13.4 g/dL); 2 mM RSR-13) of 15.1 mmHg. For the same compound, the P50 (HBOC-1 (13.4 g/dL); 5 mM RSR-13) was 83.5 ± 3.4 mmHg, the n50 (HBOC-1 (13.4 g/dL); 5 mM RSR-13) was 1.1 ± 0.3 and the ΔP50 (HBOC-1 (13.4 g/dL); 5 mM RSR-13) was 25 mmHg and 25.0 mmHg. It also gave a P50 ([1]; 1 mM RSR-13) of 35.1 ± 2.2 mmHg, a n50 ([1]; 1 mM RSR-13) of 2.4 ± 0.2 and a ΔP50 ([1]; 1 mM RSR-13) of 3.3 mmHg. For the same compound, the P50 ([1]; 2 mM RSR-13) was 42.0 ± 1.7 mmHg, the n50 ([1]; 2 mM RSR-13) was 2.0 ± 0.3 and the ΔP50 ([1]; 2 mM RSR-13) was 10.2 mmHg. For the same compound, the P50 ([1]; 5 mM RSR-13) was 78.0 ± 1.2 mmHg, the n50 ([1]; 5 mM RSR-13) was 1.8 ± 0.1 and the ΔP50 ([1]; 5 mM RSR-13) was 46.2 mmHg. The “Percentage (%) decrease in absorbance intensity at 417 nm” value (“Percentage (%) decrease” for short) ([2]; 20 uM RSR-13) was 3.3 ± 0.4%, the “Percentage (%) decrease” value ([2]; 100 uM RSR-13) was 7.9 ± 0.4% and the “Percentage (%) decrease” value ([2]; 200 uM RSR-13) was 14.9 ± 0.3%. For the same compound, the “Percentage (%) decrease” value ([2]; 300 uM RSR-13) was 17.1 ± 0.5%, the P50 [3, 10] was 74.0 ± 2.1 mmHg and the n50 [3, 10] was 1.5 ± 0.1. It also gave a ΔP50 [3, 10] of 21.2 mmHg, a P50 [3, 11] of 68.0 ± 4.2 mmHg and a n50 [3, 11] of 1.8 ± 0.3. For the same compound, the ΔP50 [3, 11] was 20.5 mmHg, the P50 [3, 12] was 75.1 ± 5.6 mmHg and the n50 [3, 12] was 1.7 ± 0.1. For the same compound, the ΔP50 [3, 12] was 27.6 mmHg, the P50 [3, 13] was 61.5 ± 3.6 mmHg and the n50 [3, 13] was 2.1 ± 0.1. The ΔP50 [3, 13] was 18.1 mmHg, the COHb levels ([4]; swine blood hct 30% exposed to CO to ~10% COHb (control 10.2)) was 8.5 ± 0.3% and the COHb levels ([4]; swine blood hct 30% exposed to CO to ~52% COHb (control 52.4)) was 44.2 ± 1.0%. The COHb levels [5] was 44.1 ± 0.7%, the “increase of the P50 of whole blood” value (whole blood) was 10 Torr and the “Percentage (%) decrease” value ([6]; 20 uM RSR-13) was 3.2 ± 0.4%. For the same compound, the “Percentage (%) decrease” value ([6]; 100 uM RSR-13) was 8.9 ± 0.3%, the “Percentage (%) decrease” value ([6]; 200 uM RSR-13) was 13.2 ± 0.3% and the “Percentage (%) decrease” value ([6]; 300 uM RSR-13) was 16.5 ± 0.4%. The “Percentage (%) decrease” value ([7]; 100 uM RSR-13) was 4.7 ± 0.2%, the “Percentage (%) decrease” value ([7]; 200 uM RSR-13) was 6.1 ± 0.3% and the “Percentage (%) decrease” value ([7]; 300 uM RSR-13) was 7.8 ± 0.5%. For the same compound, the “Percentage (%) decrease” value ([7]; 800 uM RSR-13) was 15.5 ± 0.5%, the P50 [8, 14] was 62.3 ± 0.5 mmHg and the n50 [8, 14] was 2.2 ± 0.2. The ΔP50 [8, 14] was 25.0 mmHg, the P50 [8, 15] was 51.3 ± 3.2 mmHg and the n50 [8, 15] was 2.2 ± 0.1. The ΔP50 [8, 15] was 16.8 mmHg, the P50 [8, 16] was 34.5 ± 0.2 mmHg and the n50 [8, 16] was 2.6 ± 0.3. For the same compound, the ΔP50 [8, 16] was 3.9 mmHg, the P50 [8, 17] was 41.5 ± 0.5 mmHg and the n50 [8, 17] was 2.3 ± 0.0. It also gave a ΔP50 [8, 17] of 11.3 mmHg, a P50 [8, 18] of 72.1 ± 1.3 mmHg and a n50 [8, 18] of 1.9 ± 0.1. The ΔP50 [8, 18] was 41.5 mmHg.

In the case of “HBOC-1: Oxyglobin® from BioPure Inc: highly purified bovine Hb that is crosslinked with gluteraldehyde”, the P50 [9] is reported as 58.5 mmHg and 58.5 ± 6.9 mmHg and the n50 [9] is reported as 1.2 and 1.2 ± 0.3.

Source: patent US20130266668A1, “USE OF HEMOGLOBIN EFFECTORS TO INCREASE THE BIOAVAILABILITY OF THERAPEUTIC GASES” (VIRGINIA COMMONWEALTH UNIVERSITY, priority 2010, published 2013)
